# According to patent US9951025B2, “Halogenopyrazoles as inhibitors of thrombin” (VERSEON CORPORATION, priority 2013, dated 2018):
# Tests used:
# [1] = cited from earlier work
# Human thrombin = biological target: T1, Human thrombin (Homo sapiens, UniProt P00734); test: thrombin protease inhibition assay, chromogenic substrate S-2238; assay type: biochemical; settings: 3 nM human thrombin, 125 μM S-2238, 10 min pre-incubation, RT
# T1 construct: purchased Haematologic Technologies Inc
# Experimental: Compounds described herein can be assayed, by a variety of methods known in the art and described herein, for inhibition of biological activity, e.g., protease activity, of a variety of proteins, e.g., thrombin.
# The thrombin activity reported herein (e.g., Table A) was obtained as follows. […] Thrombin was assayed in buffer containing 0.05 M Tris (pH 7.4), 0.015 M NaCl and 0.01% PEG-8000. The final concentration of enzyme used was 3 nM thrombin. […] All assays were performed in 96-well microtiter plates at room temperature (RT). […] Inhibitor IC50 values were determined by adding test compound as ten point, three-fold serial dilutions in buffer solution, as known in the art. The plate was read at 10 minutes after substrate addition. The IC50 was calculated by plotting the percent (%) inhibition against compound concentration and fitting the data to a constrained four parameter sigmoidal curve, as known in the art.
# glioma = settings: systemic use, rat glioma models; cited from earlier work
SMILES,IC50 (Human thrombin),also measured
N=C(N)c1ccc(CNC(=O)[C@@H]2CCN2C(=O)[C@H](NCC(=O)O)C2CCCCC2)cc1 [melagatran],,kidney graft survival ([1]; at 3 months): drastically improved; ischemia reperfusion injury ([1]; kidney transplant model): greatly reduced
"COc1ccccc1C(=O)n1nc(-c2ccc3c(c2)CCCC3=O)c(F)c1NCc1ccc(Cl)s1 [Compound 31, 6-(5-[(5-chlorothiophen-2-yl)methyl]amino-4-fluoro-1-(2-methoxybenzoyl)-1H-pyrazol-3-yl)-1,2,3,4-tetrahydronaphthalen-1-one]",< 100 nM,
"COc1ccccc1C(=O)n1nc(-c2ccc(N3CCCC3=O)cc2)c(F)c1NCc1ccc(Cl)s1 [Compound 19, 1-[4-(5-[(5-chlorothiophen-2-yl)methyl]amino-4-fluoro-1-(2-methoxybenzoyl)-1H-pyrazol-3-yl)phenyl]pyrrolidin-2-one]",< 100 nM,
"COc1ccc(C(=O)n2nc(-c3ccccc3)c(F)c2NCc2ccc(Cl)s2)c(OC)c1 [Compound 38, N-[(5-chlorothiophen-2-yl)methyl]-1-(2,4-dimethoxybenzoyl)-4-fluoro-3-phenyl-1H-pyrazol-5-amine]",< 100 nM,
"COc1ccccc1C(=O)n1nc(-c2ccccc2)c(F)c1NCc1ccc(Cl)s1 [Compound 44, N-[(5-chlorothiophen-2-yl)methyl]-4-fluoro-1-(2-methoxybenzoyl)-3-phenyl-1H-pyrazol-5-amine]",< 100 nM,
"O=C1CCCN1c1ccc(-c2nn(C(=O)c3cccc4c3OCCO4)c(NCc3ccc(Cl)s3)c2F)cc1 [Compound 17, 1-[4-(5-[(5-chlorothiophen-2-yl)methyl]amino-1-(2,3-dihydro-1,4-benzodioxine-5-carbonyl)-4-fluoro-1H-pyrazol-3-yl)phenyl]pyrrolidin-2-one]",< 100 nM,
"COc1ccccc1C(=O)n1nc(-c2ccccn2)c(F)c1NCc1ccc(Cl)s1 [Compound 43, N-[(5-chlorothiophen-2-yl)methyl]-4-fluoro-1-(2-methoxybenzoyl)-3-(pyridin-2-yl)-1H-pyrazol-5-amine]",< 100 nM,
"O=C(c1cccc2c1OCCO2)n1nc(-c2ccccc2)c(F)c1NCc1ccc(Cl)s1 [Compound 34, N-[(5-chlorothiophen-2-yl)methyl]-1-(2,3-dihydro-1,4-benzodioxine-5-carbonyl)-4-fluoro-3-phenyl-1H-pyrazol-5-amine]",< 100 nM,
"CC(C)(C)C(=O)n1nc(-c2ccccn2)c(F)c1NCc1ccccc1 [Compound 22, 1-[5-(benzylamino)-4-fluoro-3-(pyridin-2-yl)-1H-pyrazol-1-yl]-2,2-dimethylpropan-1-one]",< 100 nM,
"COc1ccccc1C(=O)n1nc(-c2ccc(C(O)C(F)(F)F)cc2)c(F)c1NCc1ccc(Cl)s1 (stereo not drawn) [Compound 18, 1-[4-(5-[(5-chlorothiophen-2-yl)methyl]amino-4-fluoro-1-(2-methoxybenzoyl)-1H-pyrazol-3-yl)phenyl]-2,2,2-trifluoroethan-1-ol]",> 1000 nM,
"CC(C)(C)C(=O)n1nc(-c2ccc(N3CCOCC3=O)cc2)c(F)c1NCc1ccc(Cl)s1 [Compound 28, 4-[4-(5-[(5-chlorothiophen-2-yl)methyl]amino-1-(2,2-dimethylpropanoyl)-4-fluoro-1H-pyrazol-3-yl)phenyl]morpholin-3-one]",< 100 nM,
CC1CNc2c(cccc2S(=O)(=O)N[C@@H](CCCNC(=N)N)C(=O)N2CC[C@@H](C)C[C@@H]2C(=O)O)C1 (stereo partly drawn) [argatroban],,survival time (glioma): prolonged; tumor mass (glioma): reduced
"CC(C)(C)C(=O)n1nc(-c2ccc3c(c2)CCCC3O)c(F)c1NCc1ccc(Cl)s1 (stereo not drawn) [Compound 2, 1-(5-[(5-chlorothiophen-2-yl)methyl]amino-4-fluoro-3-(5-hydroxy-5,6,7,8-tetrahydronaphthalen-2-yl)-1H-pyrazol-1-yl)-2,2-dimethylpropan-1-one]",> 1000 nM,
"CC(C)(C)C(=O)n1nc(-c2ccc(N3CCCC3=O)cc2)c(F)c1NCc1ccc(Cl)s1 [Compound 16, 1-[4-(5-[(5-chlorothiophen-2-yl)methyl]amino-1-(2,2-dimethylpropanoyl)-4-fluoro-1H-pyrazol-3-yl)phenyl]pyrrolidin-2-one]",< 100 nM,
"CN(C)c1cccc2c(S(=O)(=O)Oc3ccc(C(=O)n4nc(-c5ccccc5)c(F)c4NCc4ccc(Cl)s4)cc3)cccc12 [Compound 27, 4-(5-[(5-chlorothiophen-2-yl)methyl]amino-4-fluoro-3-phenyl-1H-pyrazole-1-carbonyl)phenyl 5-(dimethylamino)naphthalene-1-sulfonate]",> 1000 nM,

# More lines, main results first:
IC50 (Human thrombin),SMILES,also measured
< 100 nM,"O=C(c1ccoc1)n1nc(C2CCOCC2)c(F)c1NCc1ccc(Cl)s1 [Compound 49, N-[(5-chlorothiophen-2-yl)methyl]-4-fluoro-1-(furan-3-carbonyl)-3-(oxan-4-yl)-1H-pyrazol-5-amine]",
< 100 nM,"COCC(C)(C)C(=O)n1nc(C2CCOCC2)c(F)c1NCc1ccc(Cl)s1 [Compound 5, 1-(5-[(5-chlorothiophen-2-yl)methyl]amino-4-fluoro-3-(oxan-4-yl)-1H-pyrazol-1-yl)-3-methoxy-2,2-dimethylpropan-1-one]",
> 1000 nM,"COc1ccc(C(=O)n2nc(NCc3ccc(Cl)s3)c(F)c2C2CCOCC2)c(OC)c1 [Compound 39, N-[(5-chlorothiophen-2-yl)methyl]-1-(2,4-dimethoxybenzoyl)-4-fluoro-5-(oxan-4-yl)-1H-pyrazol-3-amine]",
100 to 1000 nM,"O=C(N1CCC(c2n[nH]c(NCc3ccc(Cl)s3)c2F)CC1)C1(O)CC1 [Compound 21, 1-[4-(5-[(5-chlorothiophen-2-yl)methyl]amino-4-fluoro-1H-pyrazol-3-yl)piperidine-1-carbonyl]cyclopropan-1-ol]",
< 100 nM,"COCC(C)(C)C(=O)n1nc(C2CCNCC2)c(F)c1NCc1ccc(Cl)s1 [Compound 9, 1-(5-[(5-chlorothiophen-2-yl)methyl]amino-4-fluoro-3-(piperidin-4-yl)-1H-pyrazol-1-yl)-3-methoxy-2,2-dimethylpropan-1-one]",
< 100 nM,"O=C(c1ccsc1)n1nc(C2CCOCC2)c(F)c1NCc1ccc(Cl)s1 [Compound 54, N-[(5-chlorothiophen-2-yl)methyl]-4-fluoro-3-(oxan-4-yl)-1-(thiophene-3-carbonyl)-1H-pyrazol-5-amine]",
< 100 nM,"O=C(c1cccc2c1OCCO2)n1nc(C2CCNCC2)c(F)c1NCc1ccc(Cl)s1 [Compound 33, N-[(5-chlorothiophen-2-yl)methyl]-1-(2,3-dihydro-1,4-benzodioxine-5-carbonyl)-4-fluoro-3-(piperidin-4-yl)-1H-pyrazol-5-amine]",
< 100 nM,"O=C(c1ccoc1)n1nc(C2CCNCC2)c(F)c1NCc1ccc(Cl)s1 [Compound 50, N-[(5-chlorothiophen-2-yl)methyl]-4-fluoro-1-(furan-3-carbonyl)-3-(piperidin-4-yl)-1H-pyrazol-5-amine]",
< 100 nM,"O=C(c1ccc(N2CCOCC2)cc1)n1nc(C2CCOCC2)c(F)c1NCc1ccc(Cl)s1 [Compound 53, N-[(5-chlorothiophen-2-yl)methyl]-4-fluoro-1-[4-(morpholin-4-yl)benzoyl]-3-(oxan-4-yl)-1H-pyrazol-5-amine]",
> 1000 nM,"COc1ccccc1C(=O)n1nc(NCc2ccc(Cl)s2)c(F)c1C1CCOCC1 [Compound 45, N-[(5-chlorothiophen-2-yl)methyl]-4-fluoro-1-(2-methoxybenzoyl)-5-(oxan-4-yl)-1H-pyrazol-3-amine]",
